TGI and GI50 data for 26 compounds are collected here from PubChem BioAssay (NCI).

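Test compounds were applied to cells in 96-well plates for 48 hours at 5 doses. GI50: concentration for 50% inhibition of growth. TGI: concentration producing complete growth inhibition.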

What all share (assay): inhibition of tumour cell growth, NCI panel, 48 h
The subject of experiment [1] is IGROV1 ovarian.
The test system of experiment [2] is UO-31 renal.
Experiment [3] has as its system COLO 205 colon.
For experiment [4], the system named is HCT-116 colon.
Experiment [5] relates to U251 CNS.
Experiment [6] relates to K-562 leukemia.
For experiment [7], the system named is HCT-15 colon.
The subject of experiment [8] is OVCAR-4 ovarian.
Experiment [9] deals with NCI/ADR-RES ovarian.
The test system of experiment [10] is DU-145 prostate.

As for `Cc1cccc(N=N/C(=N\NC(=O)c2cc(Cl)ccc2O)c2ccc(N(CCC#N)CCC#N)cc2C)c1`, the TGI was 43.6 µM in experiment [1]; 82.9 µM in experiment [2]; 29.3 µM in [3]; greater than 100 µM in experiment [4]; greater than 100 µM in experiment [5]; 67.3 µM in experiment [6]. Besides, the TGI in [7] was 88.2 µM; in [8], 76.3 µM; in experiment [9], greater than 100 µM; in [10] it was greater than 100 µM.

For the compound `Cn1c(=O)c2c(=O)cc(N)[nH]c2n(C)c1=O`, the TGI in experiment [1], in [2], in [3], in experiment [4], in experiment [5] and in experiment [6] was greater than 100 µM each time. Also, the TGI in experiment [8], in experiment [9] and in [10] was greater than 100 µM in each case.

For `CCCCCCCCCCCCCCCCCCOc1ccccc1COP(=O)(O)OOCC[N+](C)(C)C`, the GI50 is 0.738 µM in [1]; 1.27 µM in experiment [2]; 1.04 µM in [3]; 1.23 µM in [6]; 1.64 µM in experiment [7]; 1.33 µM in [8]. In addition, the values for the GI50 in [9] and in experiment [10] were 6.59 µM and 1.88 µM, respectively. Moreover, the TGI worked out at 1.5 µM in experiment [1]; 6.76 µM in experiment [2]; 2.57 µM in experiment [3]; 50 µM in [6]; 7.87 µM in experiment [7]; 9.92 µM in experiment [8]. Moreover, the TGI in experiment [9] came to 20.6 µM; in [10], 7.43 µM.

On to `COc1ccc(/C=C/C(=O)CCN2CCN(CCC(=O)/C=C/c3ccc(OC)cc3)CC2)cc1`, for which the TGI in experiment [1] is 25.9 µM; in experiment [2], 27.7 µM; in experiment [3], 13.4 µM; in [4] it was 11.1 µM; in experiment [5] it was 26.6 µM; in experiment [6] it was 37.9 µM. For the same compound, the TGI in experiment [7] came to 22.3 µM; in experiment [8], 50 µM; in experiment [9], 96 µM; in [10] it was 71.1 µM.

Turning to `CC(C)C(/C=C/c1ccc(Cl)cc1)=N\NC(=O)N/N=C(/C=C/c1ccc(Cl)cc1)C(C)C`, the TGI in experiment [1] is 94.7 µM; in [2], greater than 100 µM; in experiment [3], greater than 100 µM; in experiment [4], 39 µM; in experiment [5], 30.6 µM; in [6] it was greater than 100 µM. Also, the TGI in [7] is greater than 100 µM; in experiment [8], 36 µM; in experiment [9] it was 78.9 µM; in experiment [10], greater than 100 µM.

For `COc1ccc(Nc2cc(=O)[nH]c(=O)[nH]2)cc1`, the TGI in experiment [1], in [2], in experiment [3], in experiment [4], in experiment [5] and in experiment [6] was greater than 100 µM each time. Also, the TGI in experiment [7], in experiment [8], in [9] and in experiment [10] was greater than 100 µM in each case.

As to `CC1(C)N([O-])[N+](=O)C1(C)O` (configuration not stated), the TGI in experiment [1], in [2], in [3], in experiment [4], in experiment [5] and in [6] was greater than 100 µM in each case. Also, the TGI in [7], in experiment [8], in [9] and in [10] was greater than 100 µM throughout.

With `COC(=O)C1Cc2cc3c(cc2C1)CCC3`, the TGI in experiment [1], in [2], in [3], in experiment [4], in experiment [5] and in [6] was greater than 100 µM each time. In addition, the TGI in [7], in experiment [8], in [9] and in [10] was greater than 100 µM each time.

Turning to `Cc1ccc(S(=O)(=O)Nn2c(S)c(C#N)c(-c3ccc(Cl)cc3)c(C#N)c2=O)cc1`, the TGI in experiment [1] was 59.4 µM; in experiment [2] it was 57.5 µM; in experiment [3] it was greater than 100 µM; in experiment [4], greater than 100 µM; in experiment [5], 58 µM; in [6] it was greater than 100 µM. Also, the TGI in experiment [7] is 71.1 µM; in [8] it was 43.2 µM; in experiment [9] it was 71.5 µM; in [10] it was greater than 100 µM.

In the case of `CCOC(=O)CC1Nc2ccccc2C12CCc1c([nH]c3ccccc13)C2C(=O)OCC` (configuration not stated), the TGI was 61.7 µM in experiment [1]; greater than 100 µM in experiment [2]; 22.4 µM in experiment [3]; greater than 100 µM in experiment [4]; greater than 100 µM in experiment [5]; greater than 100 µM in experiment [6]. Moreover, the TGI in experiment [7], in experiment [8], in experiment [9] and in experiment [10] was greater than 100 µM throughout.

For `CC(C)CC1N=C(OCc2ccccc2)OC1=O` (configuration not stated), the TGI in experiment [1], in experiment [2], in experiment [4], in [5], in [6] and in [7] was greater than 100 µM each time. In addition, the TGI in experiment [8], in experiment [9] and in experiment [10] was greater than 100 µM in each case.

In the case of `C[C@@H](c1ccccc1)N1CO[C@@]2(C#Cc3ccc4c(c3)OCO4)CCC[C@@H]12`, the TGI turned out to be 22.9 µM in experiment [1]; 28.1 µM in experiment [2]; 31.4 µM in [3]; 29.1 µM in experiment [4]; 28.1 µM in experiment [5]; 96.2 µM in experiment [6]. The TGI in experiment [7] was 27.4 µM; in [8], 28.4 µM; in experiment [9] it was 30.8 µM; in [10] it was 29.7 µM.

Turning to `O=C(/C=C/c1cccc(Br)c1)N1CCN(CCOC(c2ccccc2)c2ccccc2)CC1`, the TGI was greater than 100 µM in [1]; 65.8 µM in [2]; 57.4 µM in experiment [3]; greater than 100 µM in [4]; greater than 100 µM in experiment [5]; 55 µM in experiment [6]. The TGI in experiment [7], in experiment [8], in experiment [9] and in [10] was greater than 100 µM throughout.

With `C[C@@H]1CC[C@@]2(C)[C@H](C)/C(=C\COC(=O)/C=C/c3ccc(O)c(O)c3)CC[C@@]12C`, the TGI in experiment [1] is 22.6 µM; in experiment [2], 28 µM; in [3] it was 13.4 µM; in [4], 14 µM; in experiment [5] it was 17.8 µM; in [6] it was 17.8 µM. Moreover, the TGI came to 16.1 µM in [7], 19 µM in experiment [8], 23.5 µM in experiment [9] and 23.4 µM in experiment [10].

Take `CC(C)c1c(O[Si](C(C)C)(C(C)C)C(C)C)cc2c(c1O)CC[C@H]1C(C)(C)CCC[C@]21C`: the TGI in [1], in experiment [2], in [3], in [4], in [5] and in [6] was greater than 100 µM in each case. For the same compound, the TGI in experiment [7], in experiment [8], in experiment [9] and in [10] was greater than 100 µM each time.

Take `COCCCNc1c2ccccc2nc2ccccc12`: the TGI was 22.9 µM in [1]; 8.01 µM in experiment [2]; 6.73 µM in experiment [3]; 15.7 µM in experiment [4]; 23.6 µM in [6]; 3.38 µM in experiment [7]. Further, the values for the TGI in experiment [8], in [9] and in experiment [10] were 20.6 µM, 33.6 µM and 9.75 µM, respectively.

`c1ccc(/C(=N/Nc2ccccn2)c2cccnn2)cc1`: the TGI in experiment [1] is 18 µM; in [2], 6.02 µM; in experiment [3], greater than 100 µM; in [4], greater than 100 µM; in experiment [5] it was greater than 100 µM; in [6], greater than 100 µM. The TGI in experiment [7] was greater than 100 µM; in experiment [8] it was greater than 100 µM; in experiment [9] it was 13.2 µM; in [10], greater than 100 µM.

For the compound `CC/C=C\C=C/C(=O)N/C=C/CCC`, the TGI in experiment [1], in [2], in experiment [4], in experiment [5], in experiment [6] and in [7] was greater than 100 µM each time. The TGI in [8], in [9] and in experiment [10] was greater than 100 µM throughout.

In the case of `CN(Cc1cnc2nc(N)nc(N)c2n1)c1ccc(C(=O)NCCCC(=O)O)cc1`, the TGI in [1], in experiment [2], in experiment [3], in [4], in experiment [5] and in experiment [6] was greater than 100 µM in each case. Moreover, the TGI in [7], in experiment [8], in [9] and in [10] was greater than 100 µM each time.

As for `O=C(CCCn1ccnc1[N+](=O)[O-])NCCn1cnc([N+](=O)[O-])n1`, the TGI in experiment [1], in experiment [2], in [3], in experiment [4], in experiment [5] and in [6] was greater than 100 µM throughout. Further, the TGI in [7], in experiment [8], in experiment [9] and in experiment [10] was greater than 100 µM in each case.

For `C#CCNC(=O)CC[C@@H](C)[C@H]1CC[C@H]2[C@@H]3CC[C@@H]4CC(=O)CC[C@]4(C)[C@H]3CC[C@]12C`, the GI50 in [1] was 0.649 µM; in [2], 0.192 µM; in experiment [3], 15.7 µM; in [4], 12.9 µM; in experiment [5], 15.8 µM; in experiment [6], 5.19 µM. Besides, the GI50 was 12.1 µM in [7], 14.9 µM in [8], 16.9 µM in experiment [9] and 14.8 µM in experiment [10]. For the same compound, the TGI in [1] was found to be 3.13 µM; in experiment [2], 0.424 µM; in experiment [3], 32.5 µM; in [4] it was 52 µM; in [5], 39.4 µM; in experiment [6] it was 44.3 µM. The TGI in experiment [7] turned out to be 36.3 µM; in experiment [8], 52.6 µM; in [9], 45.3 µM; in [10], 35.1 µM.

Regarding `COc1ccc(C=O)cc1OS(=O)(=O)C(F)(F)C(F)(F)C(F)(F)C(F)(F)F`, the TGI in [1] was greater than 67.5 µM; in experiment [2], greater than 60.9 µM; in experiment [3] it was 62.4 µM; in experiment [4], greater than 70.4 µM; in experiment [5], 66.5 µM; in [7], greater than 100 µM. For the same compound, the TGI is greater than 100 µM in experiment [8], 58.3 µM in experiment [9] and greater than 100 µM in experiment [10].

Take `S=C1NNC2(C(=S)N1)c1ccccc1-c1ccccc12`: the TGI in [1], in experiment [2], in experiment [3], in experiment [5], in [6] and in experiment [7] was greater than 10 µM in each case. For the same compound, the TGI in experiment [8], in experiment [9] and in experiment [10] was greater than 10 µM throughout.

Take `CC(=O)OCC1OC(O[C@H]2C=C[C@@H](C(=O)OCc3ccccc3)n3c(=O)n(-c4ccccc4)c(=O)n32)C(OC(C)=O)C(OC(C)=O)C1OC(C)=O` (some centres not stated): the TGI in [1] amounted to 6.13 µM; in [2] it was 2.93 µM; in experiment [3] it was 8.75 µM; in experiment [5] it was 4.81 µM; in [6], 8.72 µM; in experiment [7] it was 2.44 µM. The TGI is 6.89 µM in experiment [8], greater than 100 µM in [9] and 8.47 µM in experiment [10].

Consider `CN(C)CC(C)(C)CN1c2ccccc2Sc2ccccc21`, for which the TGI is 28.1 µM in experiment [1]; 24.9 µM in experiment [3]; 26.7 µM in [4]; 26.4 µM in [5]; 22.8 µM in [6]; greater than 100 µM in experiment [7]. In addition, the TGI in experiment [8] worked out at 26.5 µM; in experiment [9] it was 26.3 µM; in experiment [10] it was 24.8 µM.

Regarding `Cc1cc(N=Cc2c(CO)cnc(C)c2O)c(N=Cc2c(CO)cnc(C)c2O)cc1C`, the TGI in experiment [1], in experiment [3], in experiment [4], in [5], in experiment [6] and in [7] was greater than 100 µM each time. For the same compound, the TGI in experiment [8], in experiment [9] and in experiment [10] was greater than 100 µM in each case.
